According to PMC7145288, “New Peptide-Based Pharmacophore Activates 20S Proteasome” (Molecules, 2020):
“Also recorded” adds a separate entry of the source.

Experiments:
[1] = tested on: animal models of Alzheimer's disease; conditions: ref 15 (Chocron et al.); cited from earlier work
Description: In the light of significant proteasome-enhancing effects of TAT peptides observed both in cellulo (Figure 5 and [15]) and in vivo [15], there is a crucial question of how they influence proteolytic activity in the most widespread form of the proteasome, the 26S holoenzyme. The most-explored TAT compounds are proposed to dock in the α1/α2 pocket, which, alongside the α5/α6 pocket, is permanently occupied in all conformational forms of the 26S assembly. Therefore, activation of the core already decorated with two 19S modules seems excluded. Still, in our in vitro experiments, a signif ...

[2] = tested on: proteasome ChT-L activity in SK-N-SH (ATCC HTB-11) cell lysates; test: ChT-L proteasome activity in lysates of treated SK-N-SH cells; type: cell-based, human; conditions: SK-N-SH cells; for Proteasome ChT-L activity in lysates of treated cells versus control lysates (in words): 1 µM peptide, 24 h, 1 μg lysate, 50 μM Suc-LLVY-AMC, n = 3–4
Experimental: […] The content of live cells was determined by the Trypan Blue-exclusion assay. The cells were harvested, washed twice in PBS, resuspended in dilution buffer (see above) and stored in −80 °C. To prepare lysates the thawed preparations were vortexed with glass beads and centrifuged for 5 min 5000× g (4 °C). The supernatant was centrifuged for 20 min 14,000× g (4 °C). The resulting supernatant—“crude lysate” was diluted to 1 mg/mL of total protein with dilution buffer. 1 μg of lysate per assay (reaction buffer: 50 mM Tris/HCl pH 8, 0.1 mM MgCl2, 0.2 mM ATP, 0.1 mM dithiothreitol, 50 μM Suc-LLVY-AMC) was used for determination of ChT-L activity in a 96-well format, as above.

[3] = molecular target: T1, core proteasome, post glutamyl peptide hydrolyzing (PGPH) activity (Homo sapiens, UniProt P25787+P60900); test: PGPH peptidase activity of latent 20S proteasome (Z-LLE-AMC); type: biochemical; conditions: 100 μM Z-LLE-AMC, n = 3–4
T1 construct: Human housekeeping core (20S) proteasome purified from erythrocytes; purchased Boston Biochem, Inc. or Enzo Life Sciences, Inc; host or cells: human erythrocytes (natural source)
Experimental: (§1) Human housekeeping core (20S) proteasome purified from erythrocytes was purchased from Boston Biochem, Inc. (Cambridge, MA) or from Enzo Life Sciences, Inc. (Farmingdale, NY). Multiple batches of the proteasomes were used and performed reproducibly. The stock proteasome was diluted to 0.2 mg/mL working solution in “dilution buffer” (50 mM Tris/HCl, pH 8, 20% glycerol). The following model peptide substrates, all releasing fluorescent 7-amino-4-methylcoumarin (AMC) reporter group after cleavage, were used: succinyl-LeuLeuValTyr-AMC (for the ChT-L peptidase; SucLLVY-AMC; Bachem Bioscience Inc., Philadelphia, PA), butoxycarbonyl-LeuArgArg-AMC (T-L; Bachem Bioscience Inc., Philadelphia, PA) and carbobenzoxy- LeuLeuGlu-AMC (PGPH; Enzo Life Sciences Inc., Farmingdale, NY). The substrates were used at concentration of 50 μM (ChT-L) or 100 μM (T-L, PGPH). […] After mixing, the plate was transferred to a Fluoroskan Ascent plate reader (Thermo Fisher Scientific Inc., Waltham, MA) for 1 h (37 °C), with fluorescence readouts once per minute. […] The reaction rates were calculated from a linear segment of kinetic curves constructed from measurements in 1-min intervals. Reaction rates were calculated using a linear fit performed with the Slope Analyser and Enzyme Kinetics applications launched within Origin Pro 2019 (OriginLab Corporation, Northampton, MA). […]

[4] = molecular target: T2, core proteasome, trypsin-like (T-L) activity (Homo sapiens, UniProt P25787+P60900); test: T-L peptidase activity of latent 20S proteasome (Boc-LRR-AMC); type: biochemical; conditions: 100 μM Boc-LRR-AMC, n = 3–4
T2 construct: Human housekeeping core (20S) proteasome purified from erythrocytes; purchased Boston Biochem, Inc. or Enzo Life Sciences, Inc; host or cells: human erythrocytes (natural source)
Experimental: as §1

Compound: N=C(N)NCCC[C@H](NC(=O)CN)C(=O)N[C@@H](CCCCN)C(=O)N[C@@H](CCCCN)C(=O)N[C@@H](CCCNC(=N)N)C(=O)N[C@@H](CCCNC(=N)N)C(=O)N[C@@H](CCC(N)=O)C(=O)N1Cc2ccccc2C[C@H]1C(=O)N1[C@@H](C(=O)N[C@@H](CCCNC(=N)N)C(=O)N2CCC[C@H]2C(=O)N[C@@H](CO)C(=O)O)C[C@H]2CCCC[C@H]21 [(5)]
- Proteins with increased turnover on treatment [1]: APP and β secretase
- Proteasome ChT-L activity in lysates of treated cells versus control lysates (in words) [2]: significantly higher than activity in control lysates
- Dose dependent proteasome activation, 4 h versus 24 h exposure (in words) ([2]; 0.5 or 1.0 µM, 4 or 24 h): substantially stronger after 4 h exposure than after 24 h
- Effect on PGPH activity (in words) [3]: weak inhibitory effects; also recorded: did not seem to significantly affect
- Effect on T-L activity (in words) [4]: weak inhibitory effects; also recorded: did not seem to significantly affect

Compound: NCCCC[C@H](NC(=O)[C@H](CCCCN)NC(=O)[C@H](CCCCN)NC(=O)c1cc(NC(=O)[C@H](CCCCN)NC(=O)[C@H](CCCCN)NC(=O)[C@@H](N)CCCCN)cc(NC(=O)[C@H](CCCCN)NC(=O)[C@H](CCCCN)NC(=O)[C@@H](N)CCCCN)c1)C(=O)O [(8)]
- Proteins with increased turnover on treatment [1]: APP and β secretase
- Proteasome ChT-L activity in lysates of treated cells versus control lysates (in words) [2]: significantly higher than activity in control lysates
- Effect on PGPH activity (in words) [3]: weak inhibitory effects; also recorded: did not seem to significantly affect
- Effect on T-L activity (in words) [4]: weak inhibitory effects; also recorded: did not seem to significantly affect
